From patent US10138230B2, “Autotaxin inhibitors” (CANCER RESEARCH TECHNOLOGY LIMITED, priority 2015, dated 2018) come the findings set out here.

This experiment deals with human recombinant ATX (Homo sapiens (Human), UniProt Q13822). Description: Autotaxin (ATX) activity Quanta Red assay. The settings on record: 15 μM Rac-1-Palmitoyl-glycero-3-phosphocholine, 2 hours room temperature, determined in duplicate. The experiment is classed as biochemical. As for the experimental part: The ATX enzyme assay (Quanta Red assay) described in accompanying Example section may be used to measure the pharmacological effects of the compounds of the present invention.
Autotaxin (ATX) Activity Quanta Red Assay
Measuring ATX activity using an enzyme coupled Quanta Red assay (Thermo Scientific—Pierce Protein Research Products, Product #15159) was determined as follows. 8 μL human recombinant ATX (final concentration 0.8 μg/mL) in 1× Assay buffer containing 50 mM Tris-HCl (pH 8.0), 5 mM CaCl2 was added to an opaque black flat-bottom 384-well plate (Corning, #3575) containing 2 μL test compound in 40% DMSO (4% final DMSO concentration). 10 μL of Quanta Red, Horseradish peroxidase (HRP), Choline Oxidase (CO), Rac-1-Palmitoyl-glycero-3-phosphocholine solution (final concentration 1:250 for Quanta Red, 0.5units/ml HRP, 0.5units/ml CO, 15 μM Rac-1-Palmitoyl-glycero-3-phosphocholine) in 1× assay buffer (as described previously) was added to each well to start the reaction and the plate was incubated at room temperature for 2 hours. The reaction was stopped after 2 hours with a 20 μL addition of Quanta Red Stop solution (1:20 dilution in distilled water). The above-described mixture with DMSO alone was used as a positive control whereas that with DMSO alone without ATX was taken as a negative control.
For each test compound, ten concentrations were measured covering a range of 6.1 nM to 120 μM to determine IC50 values. The top concentration was decreased to 1.2 μM when a test compound's IC50 value was evaluated in low nanomolar range. Fluorescence was determined in a BMG Labtech Pherastar plus plate reader ([…]). Data were analysed using Excel fit software. IC50 values were determined in duplicate.
For the molecule `O=C(Nc1nnc(CCc2ccc(Cl)cc2)s1)C1CC(=O)N(c2ccc(CN3CC4CC4C3)cc2)C1` (centres unmarked) [Compound F110, 1-[4-(3-azabicyclo[3.1.0]hexan-3-ylmethyl)phenyl]-N-[5-[2-(4-chlorophenyl)ethyl]-1,3,4-thiadiazol-2-yl]-5-oxo-pyrrolidine-3-carboxamide], the IC50 stood at 3 nM.
Turning to `CN(Cc1ccc(N2CC(C(=O)Nc3nnc(CCc4ccc(Cl)cc4)s3)CC2=O)cc1)C1CCOCC1` (centres unmarked) [Compound F111, N-[5-[2-(4-chlorophenyl)ethyl]-1,3,4-thiadiazol-2-yl]-1-[4-[[methyl(tetrahydropyran-4-yl)amino]methyl]phenyl]-5-oxo-pyrrolidine-3-carboxamide], the IC50 was found to be 3 nM.
Regarding `CCN(Cc1ccc(N2CC(C(=O)Nc3nnc(CCc4ccc(Cl)cc4)s3)CC2=O)cc1)CC(C)C` (centres unmarked) [Compound F112, N-[5-[2-(4-chlorophenyl)ethyl]-1,3,4-thiadiazol-2-yl]-1-[4-[[ethyl(isobutyl)amino]methyl]phenyl]-5-oxo-pyrrolidine-3-carboxamide], the IC50 is 3 nM.
The value for `O=C(Nc1nnc(CCC2CCCC2)s1)C1CC(=O)N(c2ccc(CN3CCC(F)CC3)cc2)C1` (centres unmarked) [Compound F113, N-[5-(2-cyclopentylethyl)-1,3,4-thiadiazol-2-yl]-1-[4-[(4-fluoro-1-piperidyl)methyl]phenyl]-5-oxo-pyrrolidine-3-carboxamide] was 3 nM; that for `O=C(Nc1nnc(CCc2ccc(Cl)cc2)s1)C1CC(=O)N(c2ccc(CN3CCCCCC3)cc2)C1` (centres unmarked) [Compound F114, 1-[4-(azepan-1-ylmethyl)phenyl]-N-[5-[2-(4-chlorophenyl)ethyl]-1,3,4-thiadiazol-2-yl]-5-oxo-pyrrolidine-3-carboxamide] was 3 nM.
With `O=C(Nc1nnc(CCC2CCCC2)s1)C1CC(=O)N(c2ccc(CN3CCCC(F)(F)C3)cc2)C1` (centres unmarked) [Compound F115, N-[5-(2-cyclopentylethyl)-1,3,4-thiadiazol-2-yl]-1-[4-[(3,3-difluoro-1-piperidyl)methyl]phenyl]-5-oxo-pyrrolidine-3-carboxamide] the figure was 3 nM; with `CCCN(CCC)Cc1ccc(N2CC(C(=O)Nc3nnc(CCc4ccc(Cl)cc4)s3)CC2=O)cc1` (centres unmarked) [Compound F116, N-[5-[2-(4-chlorophenyl)ethyl]-1,3,4-thiadiazol-2-yl]-1-[4-[(dipropyl-amino)methyl]phenyl]-5-oxo-pyrrolidine-3-carboxamide], 3 nM.
Consider `CN1CCN(Cc2ccc(N3CC(C(=O)Nc4nnc(CCc5ccc(Cl)cc5)s4)CC3=O)cc2)CC1` (centres unmarked) [Compound F117, N-[5-[2-(4-chlorophenyl)ethyl]-1,3,4-thiadiazol-2-yl]-1-[4-[(4-methylpiperazin-1-yl)methyl]phenyl]-5-oxo-pyrrolidine-3-carboxamide], for which the IC50 worked out at 4 nM.
The value for `O=C(Nc1ncc(CCc2ccccc2)s1)C1CC(=O)N(c2ccc(CN3CCOCC3)cc2)C1` (centres unmarked) [Compound F118, 1-[4-(morpholinomethyl)phenyl]-5-oxo-N-[5-(2-phenylethyl)thiazol-2-yl]pyrrolidine-3-carboxamide] was 4 nM; that for `C[C@@H]1CN(Cc2ccc(N3CC(C(=O)Nc4nnc(CCc5ccc(Cl)cc5)s4)CC3=O)cc2)C[C@H](C)O1` (stereo partly drawn) [Compound F119, N-[5-[2-(4-chlorophenyl)ethyl]-1,3,4-thiadiazol-2-yl]-1-[4-[[(2S,6R)-2,6-dimethylmorpholin-4-yl]methyl]phenyl]-5-oxo-pyrrolidine-3-carboxamide] was 4 nM; that for `O=C(Nc1nnc(CCc2ccc(Cl)cc2)s1)C1CC(=O)N(c2ccc(CN3CCOCC3)cc2)C1` (centres unmarked) [Compound F121, N-[5-[2-(4-chlorophenyl)ethyl]-1,3,4-thiadiazol-2-yl]-1-[4-(morpholinomethyl)phenyl]-5-oxo-pyrrolidine-3-carboxamide] was 4 nM.

The IC50 is the midpoint of a concentration-inhibition curve.
